“Also recorded” adds a separate entry of the source. Where two headings read alike, the source gives them in different places.
Experiments:
ZIKV MTase = ZIKV MTase (Zika virus, UniProt A0A024B7W1); format: binding; conditions: read-out: KD of FL-NAH
YFV MTase [1] = target: T1, YFV MTase (Yellow fever virus, UniProt P03314); format: binding; conditions: read-out: KD of FL-NAH
NSP14-NSP10 complex = NSP14-NSP10 complex (Severe acute respiratory syndrome coronavirus 2, UniProt P0DTD1); assay: FL-NAH FP binding assay, NSP14-NSP10 complex; design: species or system SARS-CoV-2; conditions: 50 nM FL-NAH, read-out: binding affinity of FL-NAH
Description: FP was calculated by measuring the parallel and perpendicular fluorescence with excitation and emission wavelengths of 485 nm and 528 nm, respectively. N=3
Using purified proteins, we investigated whether binding of FL-NAH to the NSP14 MTase could be monitored by FP. […] In addition, we investigated if FL-NAH is also bound to the NSP14/NSP10 complex. […] The results confirmed that NSP10 was not required for the NSP14 MTase function. Since NSP10 had only minimal effects on the NSP14 MTase activity, all the following experiments were performed using the NSP14 MTase alone.

WNV MTase [2] = target: T2, WNV MTase (West Nile virus, UniProt Q9Q6P4); format: binding; conditions: read-out: KD of FL-NAH
DENV3 MTase [3] = target: T3, DENV3 MTase (Dengue virus type 3, UniProt Q6YMS4); assay: FL-NAH FP binding assay, DENV3 MTase
[4] = tested on: SARS-CoV-2 Omicron strain (BA.1.1); assay: Immunofluorescence assay, SARS-CoV-2 Omicron strain; format: cell-based
DENV2 = assay: Antiviral immunofluorescence assay (IFA), DENV2; format: cell-based
ZIKV NS5 MTase = ZIKV NS5 MTase (Zika virus, UniProt A0A024B7W1); format: binding
DENV3 NS5 MTase [5] = target: T4, DENV3 NS5 MTase (Dengue virus type 3, UniProt Q6YMS4); conditions: MST
ZIKV = assay: Antiviral immunofluorescence assay (IFA), ZIKV; format: cell-based
YFV MTase [6] = target: T1, YFV MTase; conditions: read-out: IC50-disp
[7] = tested on: SARS-CoV-2 WT strain (Washington strain); assay: Immunofluorescence assay, SARS-CoV-2 WT Washington strain; format: cell-based; conditions: Vero E6, WT Washington strain 0.01 MOI, 24 h
WNV MTase [8] = target: T2, WNV MTase; format: binding
SARS-CoV-2 = conditions: read-out: Antiviral EC50; Vero cells, plaques at 72 h post-infection
DENV3 MTase [9] = target: T3, DENV3 MTase; assay: TLC MTase activity assay, DENV3; format: biochemical
YFV N7 MTase = YFV N7 MTase (Yellow fever virus, UniProt P03314); conditions: read-out: IC50-HTRF
DENV3 NS5 N7 MTase = DENV3 NS5 N7 MTase (Dengue virus type 3, UniProt Q6YMS4); assay: HTRF MTase functional assay, DENV3; format: biochemical
[10] = tested on: human lung carcinoma A549 cells; assay: WST-8 cytotoxicity assay in A549 cells; format: cell-based
Description: As previously mentioned, cytotoxicity to the human lung carcinoma A549 cells was assessed using a WST-8 cell proliferation assay kit (Dojindo Molecular Technologies, Inc.).
To further characterize these candidate inhibitors, we investigated the cytotoxicity of NSC 111552 and 288387 to human A549 lung carcinoma cells, using a WST-8 cell viability kit, as we described previously.

SARS-CoV-2 NSP14 MTase [11] = target: T5, SARS-CoV-2 NSP14 MTase (Severe acute respiratory syndrome coronavirus 2, UniProt P0DTD1); conditions: read-out: IC50-MS, NSP14 MTase activity
DENV2 replicon = conditions: read-out: EC50-DENV2 Replic; DENV2 replicon cell line
WNV N7 MTase = WNV N7 MTase (West Nile virus, UniProt Q9Q6P4); format: biochemical
[12] = target: SARS-CoV-2 NSP14 N7-MTase (Severe acute respiratory syndrome coronavirus 2, UniProt P0DTD1); conditions: read-out: IC50-HTRF, NSP14 MTase activity; GpppA dinucleotide substrate
SARS-CoV-2 NSP14 MTase [13] = target: T5, SARS-CoV-2 NSP14 MTase; format: binding; conditions: for IC50: 50 nM FL-NAH, NSP14 MTase, read-out: IC50-disp, inhibition of FL-NAH binding
ZIKV N7 MTase = ZIKV N7 MTase (Zika virus, UniProt A0A024B7W1); format: biochemical
DENV3 NS5 MTase [14] = target: T4, DENV3 NS5 MTase; assay: FL-NAH FP displacement assay, DENV3 NS5; format: binding
SARS-CoV-2 NSP14 MTase [15] = target: T5, SARS-CoV-2 NSP14 MTase; conditions: read-out: IC50-TLC, NSP14 MTase activity
Human RNA MTase (hRNMT) = Human RNA MTase (hRNMT) (Homo sapiens, UniProt O43148); conditions: read-out: IC50-disp
SARS-CoV-2 NSP14 = SARS-CoV-2 NSP14 (Severe acute respiratory syndrome coronavirus 2, UniProt P0DTD1); conditions: read-out: NSP14 KD; MST, NSP14 40 nM
SARS-CoV-2 WA strain = assay: Checkerboard compound combination assay (plaque) in Vero-E6 cells; format: cell-based
Description: The 2D compound-compound interactions were determined by checkerboard titration in a 96-well plate. Vero-E6 cells were seeded one day before combination test at 3×10^4 cells/each well. The first compound (A) was serially diluted along the x axis (columns 3 to 8); and the second compound (B) was serially diluted along the y axis (from row A to F) in the 96-well plate. The last two columns (columns 9 and 10) contained compound B-alone controls and the last two rows (row G and H) contained compound A-alone controls. After the cells grew into monolayer, the medium was discard, followed by addition of 50 μl compound mixture. Then 50 μl SARS-CoV-2 WA strain was added at MOI of 0.01.
The plate was incubated at 37° C., 5% CO2 for 1 hour. Then 100 μl overlay medium (DMEM+2% FBS+1% Methylcellulose) was added and the plate was further incubated at 37° C., 5% CO2. After 3 days, cells were fixed with 10% neutral formalin for 30 minutes, wash with water for more than 6 times and then stained with 50 μl Crystal Violet (0.5% in methanol/water) for 4 minutes. The staining solution was removed by aspiration and the plate was rinsed with water, and dried thoroughly. Plaques were counted and numbers were recorded to calculate the percentage of inhibition. SynergyFinder was used to analyze the synergistic effect of the two compounds (https://synergyfinder.fimm.fi/synergy/20230202071113839465/). Each combination testing experiment has three replicates.

SARS-CoV-2 NSP16 MTase = SARS-CoV-2 NSP16 MTase (Severe acute respiratory syndrome coronavirus 2, UniProt P0DTD1); assay: FL-NAH FP displacement assay, NSP16; format: binding; conditions: SAH 25 μM, 31.25 μM or 50 μM; NSP16 0.5 μM; p<0.0001

Chain of ZIKV NS5 MTase (A0A024B7W1 2521-2785 limits assumed): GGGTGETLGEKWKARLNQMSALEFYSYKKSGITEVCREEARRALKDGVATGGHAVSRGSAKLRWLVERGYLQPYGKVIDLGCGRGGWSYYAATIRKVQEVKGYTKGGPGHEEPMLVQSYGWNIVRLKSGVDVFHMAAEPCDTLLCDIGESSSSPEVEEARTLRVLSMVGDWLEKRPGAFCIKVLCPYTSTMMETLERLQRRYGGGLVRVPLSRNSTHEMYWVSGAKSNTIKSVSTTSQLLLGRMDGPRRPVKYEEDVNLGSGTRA
T4 sequence (Q6YMS4 2492-2753): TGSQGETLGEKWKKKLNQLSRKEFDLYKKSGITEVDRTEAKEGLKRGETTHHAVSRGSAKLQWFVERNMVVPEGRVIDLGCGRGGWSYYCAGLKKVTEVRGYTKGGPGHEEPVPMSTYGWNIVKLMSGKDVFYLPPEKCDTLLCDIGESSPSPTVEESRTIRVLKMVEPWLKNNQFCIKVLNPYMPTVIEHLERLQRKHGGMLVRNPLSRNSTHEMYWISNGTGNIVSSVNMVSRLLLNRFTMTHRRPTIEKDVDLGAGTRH
T3 sequence (Q6YMS4 2492-2753): as above
T2 sequence (Q9Q6P4 2529-2794 limits assumed): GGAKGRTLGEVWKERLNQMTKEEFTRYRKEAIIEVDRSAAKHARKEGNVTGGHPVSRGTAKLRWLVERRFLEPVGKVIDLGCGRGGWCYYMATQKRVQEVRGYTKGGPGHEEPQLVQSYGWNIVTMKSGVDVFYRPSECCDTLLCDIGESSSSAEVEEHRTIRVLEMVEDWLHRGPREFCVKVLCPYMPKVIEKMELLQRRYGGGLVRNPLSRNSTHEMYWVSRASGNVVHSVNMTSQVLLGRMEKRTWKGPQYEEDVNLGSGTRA
T1 sequence (P03314 2507-2771 limits assumed): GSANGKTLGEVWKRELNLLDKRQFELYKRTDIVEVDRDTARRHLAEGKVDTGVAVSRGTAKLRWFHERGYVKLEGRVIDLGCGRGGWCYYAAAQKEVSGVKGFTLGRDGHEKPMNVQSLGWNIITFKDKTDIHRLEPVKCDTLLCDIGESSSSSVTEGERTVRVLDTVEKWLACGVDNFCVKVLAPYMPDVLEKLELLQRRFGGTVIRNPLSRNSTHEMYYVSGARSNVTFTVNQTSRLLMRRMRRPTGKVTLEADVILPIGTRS
Chain of ZIKV N7 MTase (A0A024B7W1 2521-2785 limits assumed): as the sequence (A0A024B7W1 2521-2785 limits assumed) above
Chain of DENV3 NS5 N7 MTase (Q6YMS4 2492-2753): as the sequence (Q6YMS4 2492-2753) above
Chain of WNV N7 MTase (Q9Q6P4 2529-2794 limits assumed): as the sequence (Q9Q6P4 2529-2794 limits assumed) above
Chain of Human RNA MTase (hRNMT) (O43148 whole entry): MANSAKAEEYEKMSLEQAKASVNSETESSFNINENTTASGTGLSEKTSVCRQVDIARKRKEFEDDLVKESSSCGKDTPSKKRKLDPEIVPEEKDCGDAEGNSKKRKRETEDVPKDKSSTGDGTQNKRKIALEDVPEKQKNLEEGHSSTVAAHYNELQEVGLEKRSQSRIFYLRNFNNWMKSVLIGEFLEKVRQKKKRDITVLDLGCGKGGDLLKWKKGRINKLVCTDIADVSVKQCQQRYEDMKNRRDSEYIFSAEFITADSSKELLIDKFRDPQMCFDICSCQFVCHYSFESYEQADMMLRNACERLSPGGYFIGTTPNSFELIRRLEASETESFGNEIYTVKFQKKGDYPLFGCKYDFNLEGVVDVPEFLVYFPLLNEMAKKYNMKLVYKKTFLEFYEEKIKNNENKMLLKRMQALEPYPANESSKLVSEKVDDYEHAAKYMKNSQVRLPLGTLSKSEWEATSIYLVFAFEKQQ
Chain of YFV N7 MTase (P03314 2507-2771 limits assumed): as the sequence (P03314 2507-2771 limits assumed) above
Chain of ZIKV MTase (A0A024B7W1 2521-2785 limits assumed): as the sequence (A0A024B7W1 2521-2785 limits assumed) above

## Nc1ncnc2c1ncn2[C@@H]1O[C@H](CN(CC[C@H](N)C(=O)O)Cc2cn(CCNC(=O)c3ccc4c(c3)C(=O)OC43c4ccc(O)cc4Oc4cc(O)ccc43)nn2)[C@@H](O)[C@H]1O [FL-NAH, fluorescein N-adenosylhomocysteine]
ZIKV MTase
  Kd: 3.5 µM
YFV MTase [1]
  Kd: 3 µM
NSP14-NSP10 complex
  Kd: 0.81 µM
WNV MTase [2]
  Kd: 0.28 µM
DENV3 MTase [3]
  Kd: 0.61 µM

## CC(=O)c1cc(O)c2ccccc2c1O [NSC 111552]
[4]
  viral titer in IFA: dose-dependently reduced the viral titer
DENV2
  EC50: 0.32 µM
ZIKV NS5 MTase
  IC50: 7.3 µM
DENV3 NS5 MTase [5]
  Kd: 4.6 µM
ZIKV
  EC50: 0.9 µM
YFV MTase [6]
  IC50: 46 µM
[7]
  viral titer in IFA: dose-dependently reduced the viral titer
WNV MTase [8]
  IC50: 5.7 µM
SARS-CoV-2
  EC50: 8.5 µM
DENV3 MTase [9]
  IC50: 1.1 µM
YFV N7 MTase
  IC50: 26.7 µM
DENV3 NS5 N7 MTase
  IC50: 3.9 µM
[10]
  CC50: ~187 µM
SARS-CoV-2 NSP14 MTase [11]
  IC50: 1.5 µM
DENV2 replicon
  EC50: 5 µM
WNV N7 MTase
  IC50: 5.2 µM
[12]
  IC50: 2.2 µM
SARS-CoV-2 NSP14 MTase [13]
  IC50: 5.1 µM
ZIKV N7 MTase
  IC50: 12.9 µM
DENV3 NS5 MTase [14]; DENV3, DTT (1 mM)
  IC50: 1.6 µM
DENV3 NS5 MTase [14]; DENV3, No DTT
  IC50: 1.1 µM
SARS-CoV-2 NSP14 MTase [15]
  IC50: 7 µM
Human RNA MTase (hRNMT)
  IC50: 63.3 µM
SARS-CoV-2 NSP14
  Kd: 2.1 µM
SARS-CoV-2 WA strain; NSC111552 in combination with nirmatrelvir
  maximal ZIP-score: 21
SARS-CoV-2 WA strain; NSC111552 in combination with remdesivir
  maximal ZIP-score: 24

## COCCn1c2nc(=O)n(-c3ccccc3)c(=O)c-2nc2ccccc21 [NSC 288387]
[4]
  viral titer in IFA: dose-dependently reduced the viral titer
DENV2
  EC50: 0.53 µM
ZIKV NS5 MTase
  IC50: 4.9 µM
DENV3 NS5 MTase [5]
  Kd: 3.2 µM
ZIKV
  EC50: 0.69 µM
YFV MTase [6]
  IC50: 10 µM
[7]
  viral titer in IFA: dose-dependently reduced the viral titer
WNV MTase [8]
  IC50: 13 µM
SARS-CoV-2
  EC50: 5.7 µM
DENV3 MTase [9]
  IC50: 1.6 µM
YFV N7 MTase
  IC50: 11.2 µM
DENV3 NS5 N7 MTase
  IC50: 6 µM
[10]
  CC50: 57 µM
SARS-CoV-2 NSP14 MTase [11]
  IC50: 4.3 µM
DENV2 replicon
  EC50: 11.4 µM
WNV N7 MTase
  IC50: 12.2 µM
[12]
  IC50: 2.2 µM
SARS-CoV-2 NSP14 MTase [13]
  IC50: 2.7 µM
ZIKV N7 MTase
  IC50: 6.8 µM
DENV3 NS5 MTase [14]; DENV3, DTT (1 mM)
  IC50: 3.9 µM
DENV3 NS5 MTase [14]; DENV3, No DTT
  IC50: 1.3 µM
DENV3 NS5 MTase [14]; with vs without DTT
  effect of DTT (1 mM) on potency in inhibiting FL-NAH binding: reducing its potency by about threefold
SARS-CoV-2 NSP14 MTase [15]
  IC50: 2.5 µM
Human RNA MTase (hRNMT)
  IC50: 35.5 µM
SARS-CoV-2 NSP14
  Kd: 1.5 µM

## Nc1ncnc2c1ncn2[C@@H]1O[C@H](CSCC[C@H](N)C(=O)O)[C@@H](O)[C@H]1O [SAH, S-adenosyl-L-homocysteine]
ZIKV NS5 MTase
  inhibition of FL-NAH binding (FP): inhibited; also recorded: quenched
SARS-CoV-2 NSP14 MTase [13]; SAH 25 μM, 31.25 μM or 50 μM, NSP14 0.5 μM, p<0.0001
  inhibition of FL-NAH binding (FP): inhibited
SARS-CoV-2 NSP16 MTase
  inhibition of FL-NAH binding (FP): inhibited; also recorded: quenched

## C[S+](CC[C@H](N)C(=O)O)C[C@H]1O[C@@H](n2cnc3c(N)ncnc32)[C@H](O)[C@@H]1O (stereo partly shown) [SAM, S-adenosylmethionine]
ZIKV NS5 MTase
  inhibition of FL-NAH binding (FP): quenched
SARS-CoV-2 NSP16 MTase
  inhibition of FL-NAH binding (FP): quenched

## CC(C)(C)[C@H](NC(=O)C(F)(F)F)C(=O)N1C[C@H]2[C@@H]([C@H]1C(=O)N[C@H](C#N)C[C@@H]1CCNC1=O)C2(C)C [nirmatrelvir]
SARS-CoV-2 WA strain; Severe acute respiratory syndrome coronavirus 2, Vero C1008, nirmatrelvir alone, read-out: EC50
  EC50: 0.056 µM
SARS-CoV-2 WA strain; Severe acute respiratory syndrome coronavirus 2, Vero C1008, nirmatrelvir in the presence of NSC111552
  EC50: ~0.031 µM
SARS-CoV-2 WA strain; nirmatrelvir, in the presence of NSC111552
  EC50 shift: ~1.8 fold

## CCC(CC)COC(=O)[C@H](C)N[P@](=O)(OC[C@H]1O[C@@](C#N)(c2ccc3c(N)ncnn23)[C@H](O)[C@@H]1O)Oc1ccccc1 [remdesivir]
SARS-CoV-2 WA strain; Severe acute respiratory syndrome coronavirus 2, Vero C1008, remdesivir alone, read-out: EC50
  EC50: 0.04 µM
SARS-CoV-2 WA strain; Severe acute respiratory syndrome coronavirus 2, Vero C1008, remdesivir with NSC111552 ([…]), read-out: EC50
  EC50: 0.017 µM
SARS-CoV-2 WA strain; remdesivir with NSC111552 ([…])
  EC50 decrease: about 2.4 fold

Source: patent publication US20250205178A1, “METHODS AND COMPOSITIONS FOR INHIBITING VIRAL […]” (ARIZONA BOARD OF REGENTS ON BEHALF OF THE UNIVERSITY OF …, priority 2022, published 2025)
